Laboratory results from ChEMBL document CHEMBL2331354, “Spirocyclic replacements for the isatin in the highly selective, muscarinic M1 PAM ML137: the continued optimization of an MLPCN probe molecule” (Bioorg Med Chem Lett, 2013).
Active and inactive are the calls of the source. No cut-off for these calls is given here.

Columns and labels:
[1] = target: T1, Muscarinic acetylcholine receptor M1 (Homo sapiens, UniProt P11229); experiment: Positive allosteric modulation of human muscarinic M1 receptor
T1 sequence (P11229 whole entry): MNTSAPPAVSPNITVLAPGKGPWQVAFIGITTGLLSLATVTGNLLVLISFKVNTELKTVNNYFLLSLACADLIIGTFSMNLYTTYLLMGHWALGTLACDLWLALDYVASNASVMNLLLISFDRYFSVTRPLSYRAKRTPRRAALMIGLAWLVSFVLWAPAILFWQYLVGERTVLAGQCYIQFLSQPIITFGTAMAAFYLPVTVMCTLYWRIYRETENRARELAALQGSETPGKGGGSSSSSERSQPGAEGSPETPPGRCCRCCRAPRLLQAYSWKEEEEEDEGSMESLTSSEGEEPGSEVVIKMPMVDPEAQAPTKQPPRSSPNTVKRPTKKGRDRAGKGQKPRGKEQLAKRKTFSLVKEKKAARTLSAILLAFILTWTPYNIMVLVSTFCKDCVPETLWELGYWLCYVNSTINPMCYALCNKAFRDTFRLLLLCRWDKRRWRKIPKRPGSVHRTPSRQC

[2] = target: T2, Muscarinic acetylcholine receptor M1 (Homo sapiens) (UniProt P11229); experiment: Positive allosteric modulation of human muscarinic M1 receptor relative to acetylcholine
T2 sequence (whole entry): T1 sequence (P11229 whole entry)

[3] = target: T2, Muscarinic acetylcholine receptor M1 (Homo sapiens); experiment: Positive allosteric modulation of human muscarinic M1 receptor assessed as leftward fold shift of acetylcholine-induced response at 30 uM relative to acetylcholine
[4] = target: T2, Muscarinic acetylcholine receptor M1 (Homo sapiens); experiment: Positive allosteric modulation of human muscarinic M1 receptor at 30 uM

SMILES | Emax [2] [%] | EC50 [1] [µM] | further results
Cn1cc(-c2ccc(CN3C(=O)C(=O)c4ccccc43)c(F)c2)cn1 | 45 | – | pEC50 [1]: 6.22; fold change (FC) [3]: 2.7
CN1CCC2(CCN(Cc3ccc(-c4cnn(C)c4)cc3F)C2=O)C1 (stereo not drawn) | 28 | > 10 | –
CN1CCC2(CC1)C(=O)N(Cc1ccc(-c3cnn(C)c3)cc1F)c1ccccc12 | 49 | 3.8 | –
Cn1cc(-c2ccc(CN3C(=O)C4(CCNCC4)c4ccccc43)c(F)c2)cn1 | 29 | > 10 | –
Cn1cc(-c2ccc(CN3C(=O)C4(OCCO4)c4ccccc43)c(F)c2)cn1 | 62 | 2 | fold change (FC) [3]: 27
Cn1cc(-c2ccc(CN3CC4(OCCO4)c4ccccc43)c(F)c2)cn1 | 43 | > 10 | –
Cn1cc(-c2ccc(CN3C(=O)C4(CCCO4)c4ccccc43)cc2)cn1 (stereo not drawn) | 43 | > 10 | –
CN1CCCC12C(=O)N(Cc1ccc(-c3cnn(C)c3)cc1)c1ccccc12 (stereo not drawn) | 53 | > 10 | –
CN1CCCC12C(=O)N(Cc1ccc(Br)cc1)c1ccccc12 (stereo not drawn) | – | – | Activity [4]: inactive
C[Si](C)(C)C1COC2(C1)C(=O)N(Cc1ccc(Br)cc1)c1ccccc12 (stereo not drawn) | – | – | Activity [4]: inactive
Cc1c(-c2ccc(CN3C(=O)C4(CCN(C5CCCC5)C4)c4ccccc43)c(F)c2)cnn1C (stereo not drawn) | – | – | Activity [4]: inactive
Cc1nn(C)c(C)c1-c1ccc(CN2C(=O)C3(CCN(C4CCCC4)C3)c3ccccc32)c(F)c1 (stereo not drawn) | – | – | Activity [4]: inactive
Cn1cc(-c2ccc(CN3C(=O)C4(CCN(C5CCCC5)C4)c4ccccc43)c(F)c2)c(C(F)(F)F)n1 (stereo not drawn) | – | – | Activity [4]: inactive
Cn1cc(-c2ccc(CN3C(=O)C4(CCNC4)c4ccccc43)c(F)c2)cn1 (stereo not drawn) | – | – | Activity [4]: inactive
O=C1N(Cc2ccc(Br)cc2)c2ccccc2C12CCCN2 (stereo not drawn) | – | – | Activity [4]: inactive
O=C1N(Cc2ccc(Br)cc2)c2ccccc2C12CCCO2 (stereo not drawn) | – | – | Activity [4]: inactive
Cn1cc(-c2ccc(CN3C(=O)C4(CCN(c5ncccn5)C4)c4ccccc43)c(F)c2)cn1 (racemic) | 64 | 2.5 | fold change (FC) [3]: 17.4

SMILES | Emax [2] [%] | EC50 [1] [µM] | further results
CCN1CCC2(C1)C(=O)N(Cc1ccc(-c3cnn(C)c3)cc1F)c1ccccc12 (racemic) | 59 | 3.2 | fold change (FC) [3]: 8.3
Cn1cc(-c2ccc(CN3C(=O)C4(CCN(CCF)C4)c4ccccc43)c(F)c2)cn1 (racemic) | 60 | 4.1 | fold change (FC) [3]: 13.5
Cn1cc(-c2ccc(CN3C(=O)C4(CCN(CC(F)F)C4)c4ccccc43)c(F)c2)cn1 (racemic) | 52 | > 10 | fold change (FC) [3]: 5.9
CC(=O)N1CCC2(C1)C(=O)N(Cc1ccc(-c3cnn(C)c3)cc1F)c1ccccc12 (racemic) | 41 | > 10 | –
Cn1cc(-c2ccc(CN3C(=O)C4(CCN(C(=O)C5CCC5)C4)c4ccccc43)c(F)c2)cn1 (racemic) | 45 | 6.3 | –
Cn1cc(-c2ccc(CN3C(=O)C4(CCN(S(C)(=O)=O)C4)c4ccccc43)c(F)c2)cn1 (racemic) | 41 | > 10 | –
CC(C)N1CCC2(C1)C(=O)N(Cc1ccc(-c3cnn(C)c3)cc1F)c1ccccc12 (racemic) | 30 | > 10 | –
Cn1cc(-c2ccc(CN3C(=O)C4(CCN(C(=O)OC(C)(C)C)C4)c4ccccc43)c(F)c2)cn1 (racemic) | – | – | Activity [4]: inactive
Cn1cc(-c2ccc(CN3C(=O)C4(CCN(CC(F)(F)F)C4)c4ccccc43)c(F)c2)cn1 (racemic) | – | – | Activity [4]: inactive
Cn1cc(-c2ccc(CN3C(=O)C4(CCN(c5ccccc5)C4)c4ccccc43)c(F)c2)cn1 (racemic) | – | – | Activity [4]: inactive
CN1CCC2(C1)C(=O)N(Cc1ccc(-c3cnn(C)c3)cc1F)c1ccccc12 (single isomer, unassigned) [listing 1 of 2 here] | – | 2.9 | –
CN1CCC2(C1)C(=O)N(Cc1ccc(-c3cnn(C)c3)cc1F)c1ccccc12 (single isomer, unassigned) [listing 2 of 2 here] | 50 | – | fold change (FC) [3]: 7.2
CN1CCC2(C1)C(=O)N(Cc1ccc(-c3cnn(C)c3)cc1F)c1ccccc12 (stereo in doubt; 18d) [listing 1 of 2 here] | – | 3.2 | –
CN1CCC2(C1)C(=O)N(Cc1ccc(-c3cnn(C)c3)cc1F)c1ccccc12 (stereo in doubt; 18d) [listing 2 of 2 here] | 65 | – | –
CN1CCC2(C1)C(=O)N(Cc1ccc(-c3cnn(C)c3)cc1F)c1ccccc12 (stereo in doubt; 19a) [listing 1 of 2 here] | – | 2.9 | –
CN1CCC2(C1)C(=O)N(Cc1ccc(-c3cnn(C)c3)cc1F)c1ccccc12 (stereo in doubt; 19a) [listing 2 of 2 here] | 67 | – | fold change (FC) [3]: 21

More lines, main results first:

Emax [2] [%] | EC50 [1] [µM] | SMILES | further results
41 | 3 | Cc1nn(C)cc1-c1ccc(CN2C(=O)C3(CCN(C4CCCC4)C3)c3ccccc32)c(F)c1 (stereo not drawn) | –
28 | 2 | Cn1cc(-c2ccc(CN3C(=O)C4(CCN(C5CCCC5)C4)c4ccccc43)cc2F)cn1 (stereo not drawn) | –
66 | 2.6 | Cn1cc(-c2cc(F)c(CN3C(=O)C4(CCN(C5CCCC5)C4)c4ccccc43)c(F)c2)cn1 (stereo not drawn) | –
43 | > 10 | Cn1cc(-c2ccc(CN3C(=O)C4(CCN(C5CCCC5)C4)c4ccccc43)c(F)c2F)cn1 (stereo not drawn) | –
51 | 4.1 | Cn1cc(-c2cc(F)c(CN3C(=O)C4(CCN(C5CCCC5)C4)c4ccccc43)cc2F)cn1 (stereo not drawn) | –
44 | 1.8 | Cn1cc(-c2ccc(CN3C(=O)C4(CCN(C5CCCC5)C4)c4ccccc43)cc2)cn1 (stereo not drawn) | –
50 | 5 | Cn1cc(-c2ccc(CN3C(=O)C4(CCN(C(=O)C5CCCCC5)C4)c4ccccc43)c(F)c2)cn1 (racemic) | –
48 | > 10 | Cn1cc(-c2ccc(CN3C(=O)C4(CCN(C5CCC5)C4)c4ccccc43)c(F)c2)cn1 (racemic) | –
– | 3.1 | Cn1cc(-c2ccc(CN3C(=O)C4(CCN(C5CCCC5)C4)c4ccccc43)c(F)c2)cn1 (racemic) [listing 1 of 2 here] | –
60 | 5.2 | Cn1cc(-c2ccc(CN3C(=O)C4(CCN(C5CCCCC5)C4)c4ccccc43)c(F)c2)cn1 (racemic) | –
50 | 7.5 | Cn1cc(-c2ccc(CN3C(=O)C4(CCN(C5CCCCCC5)C4)c4ccccc43)c(F)c2)cn1 (racemic) | –
57 | – | Cn1cc(-c2ccc(CN3C(=O)C4(CCN(C5CCCC5)C4)c4ccccc43)c(F)c2)cn1 (racemic) [listing 2 of 2 here] | –
– | 1.6 | Cn1cc(-c2ccc(CN3C(=O)C4(CCN(C5CCCC5)C4)c4ccccc43)c(F)c2)cn1 (single isomer, unassigned; 19g) [listing 1 of 2 here] | –
69 | – | Cn1cc(-c2ccc(CN3C(=O)C4(CCN(C5CCCC5)C4)c4ccccc43)c(F)c2)cn1 (single isomer, unassigned; 19g) [listing 2 of 2 here] | fold change (FC) [3]: 28
33 | – | Cn1cc(-c2ccc(CN3C(=O)C4(CCN(C5CCCC5)C4)c4ccccc43)c(F)c2)cn1 (single isomer, unassigned; 19h) | –
